{"source": "patent EP0549264A1", "about": "“Purified para-nitrobenzyl esterase from bacillus” (OKLAHOMA STATE UNIVERSITY, priority 1991, dated 1993)"}
{"molecular_target": "T1, PNB esterase (Bacillus subtilis, UniProt P37967)", "T1 construct": "A culture of Bacillus subtilis NRRL B-8079 was harvested and frozen by conventional methods; made in house; host or cells: Bacillus subtilis NRRL B-8079 (natural producer; enzyme purified from cell-free extract)", "T1 sequence (P37967 1-489)": "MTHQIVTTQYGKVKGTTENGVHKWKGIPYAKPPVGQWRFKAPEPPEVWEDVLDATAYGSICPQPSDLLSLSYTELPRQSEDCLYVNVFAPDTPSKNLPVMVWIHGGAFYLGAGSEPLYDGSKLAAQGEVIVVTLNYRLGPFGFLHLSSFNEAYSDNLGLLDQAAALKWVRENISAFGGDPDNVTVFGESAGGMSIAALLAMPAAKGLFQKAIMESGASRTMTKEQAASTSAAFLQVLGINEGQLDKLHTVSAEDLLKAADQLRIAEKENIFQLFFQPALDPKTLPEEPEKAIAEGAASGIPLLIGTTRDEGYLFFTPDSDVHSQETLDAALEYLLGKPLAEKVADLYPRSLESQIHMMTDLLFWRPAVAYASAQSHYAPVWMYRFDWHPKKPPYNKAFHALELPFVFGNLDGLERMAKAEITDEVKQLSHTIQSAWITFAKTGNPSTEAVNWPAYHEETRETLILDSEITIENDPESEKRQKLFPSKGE", "assay": "PNB esterase activity assay (HPLC, method of Example 1D), effect of inhibitors", "type": "biochemical", "details": "not given", "units": {"Inhibition (%)": "%", "inhibition at 1000 µM": "%"}}
{"compound": "O=C(NC(Cc1ccccc1)C(=O)Nc1ccc2ccccc2c1)c1ccccc1", "note": "(centres unmarked) [N-benzoyl phenylalanine naptylamide]", "Inhibition (%)": 66, "PNB esterase activity inhibited (in words)": "moderately inhibited"}
{"compound": "Diethyl p-nitrophenylphosphate", "Inhibition (%)": 100, "PNB esterase activity inhibited (in words)": "strongly inhibited"}
{"compound": "C(=NC1CCCCC1)=NC1CCCCC1", "note": "[Dicyclohexyl carbodiimide]", "PNB esterase activity inhibited (in words)": "moderately inhibited", "inhibition at 1000 µM": 78}
{"compound": "O=C(O)c1cc(SSc2ccc([N+](=O)[O-])c(C(=O)O)c2)ccc1[N+](=O)[O-]", "note": "[5,5'-Dithiobis(2-nitrobenzoic acid)]", "inhibition at 1000 µM": 69}
{"compound": "[Cl][Hg][Cl]", "note": "[HgCl₂]", "Inhibition (%)": 100, "PNB esterase activity inhibited (in words)": "moderately inhibited"}
{"compound": "OCCS", "note": "[2-Mercaptoethanol]", "inhibition at 1000 µM": 0}
{"compound": "O=S(=O)(F)Cc1ccccc1", "note": "[Phenylmethylsulfonylfluoride]", "PNB esterase activity inhibited (in words)": "strongly inhibited"}
{"compound": "O=C(O)CN(CCN(CC(=O)O)CC(=O)O)CC(=O)O", "note": "[EDTA, ethylenediamine tetraacetic acid]", "inhibition at 1000 µM": 0}
{"compound": "CCOC(=O)OC(=O)OCC", "note": "[Diethylpyrocarbonate]", "PNB esterase activity inhibited (in words)": "strongly inhibited", "inhibition at 1000 µM": 100}
{"compound": "CC(=O)[O-].CC(=O)[O-].[Zn+2]", "note": "[Zn(OCOCH₃)₂]", "Inhibition (%)": 97}
{"compound": "O=CC(=O)c1ccccc1", "note": "[Phenylglyoxal]", "PNB esterase activity inhibited (in words)": "moderately inhibited", "inhibition at 1000 µM": 91}
{"compound": "O=S(=O)([O-])[O-].[Fe+2]", "note": "[FeSO4]", "Inhibition (%)": 100}
{"molecular_target": "T1, PNB esterase", "assay": "PNB esterase activity assay (HPLC, method of Example 1D), effect of inhibitors", "type": "biochemical", "details": "summary in words of Table 2; compounds at 1 mM"}
{"compound": "O=C(O)c1cc(SSc2ccc([N+](=O)[O-])c(C(=O)O)c2)ccc1[N+](=O)[O-]", "note": "[5,5'-Dithiobis(2-nitrobenzoic acid)]", "PNB esterase activity inhibited (in words)": "moderately inhibited"}
{"molecular_target": "T1, PNB esterase", "assay": "Substrate specificity comparison of native and recombinant PNB esterase", "type": "biochemical", "details": "both native enzyme and enzyme from recombinant Escherichia coli", "method": "A 1 ml reaction mixture containing 5 µmoles Bis-Tris-Propane-HCl, pH 6.5, 0.5 µmole substrate (loracarbef PNB ester, or cefaclor PNB ester), and appropriate amounts of enzyme solution was incubated at 37°C in a constant-temperature shaker for 30 minutes The reaction was stopped by the addition of an equal volume of acetonitrile. The mixture was then centrifuged to remove the protein and the supernatant solution was analyzed by high performance liquid chromatography (HPLC) for product formation and substrate disappearance. The HPLC was performed in a C-18 reverse-phase column (Nova-Pak C₁₈ radial-pak cartridge (8 X 100 mm), Millipore Bedford, MA) with a linear gradient formed by Buffer A containing 80% of 1 mM Triethylamine-HCl, pH 2.5 and 20% methanol and Buffer B containing methanol, at a flow rate of 1 ml/minutes\nThe HPLC system used was a Varian HPLC system including a Vista 5560 unit (Varian Associates, Sugar Land TX) and a model 230-401 auto-sampling injector (Gilson Medical Electronics, Middleton, WI.). The PNB esterase activity was determined by monitoring product formation at 254 nm.\nThe PNB esterase purified from recombinant Escherichia coli was compared to the native enzyme by molecular weight, Western blot analysis, and substrate specificity.\nMeasurements of molecular weight gave values of 54,000 for enzyme from the two sources, and identical precipitin bands were obtained when the two enzyme preparations were tested using antibody prepared against native purified esterase. Both enzymes hydrolyzed cefaclor PNB ester, cefaclor nucleus PNB ester, loracarbef PNB ester, and loracarbef nucleus PNB ester. The native PNB esterase and the corresponding PNB esterase produced in recombinant E. coli strains appear functionally identical and structually the same at macroscale."}
{"compound": "N[C@@H]1C(=O)N2C(C(=O)OCc3ccc([N+](=O)[O-])cc3)=C(Cl)CS[C@H]12", "note": "[cefaclor nucleus PNB ester]", "hydrolysis by PNB esterase": "hydrolyzed"}
{"compound": "N[C@@H](C(=O)N[C@@H]1C(=O)N2C(C(=O)OCc3ccc([N+](=O)[O-])cc3)=C(Cl)CC[C@H]12)c1ccccc1", "note": "[loracarbef PNB ester]", "hydrolysis by PNB esterase": "hydrolyzed"}
{"compound": "N[C@@H]1C(=O)N2C(C(=O)OCc3ccc([N+](=O)[O-])cc3)=C(Cl)CC[C@H]12", "note": "[loracarbef nucleus PNB ester]", "hydrolysis by PNB esterase": "hydrolyzed"}
{"compound": "N[C@@H](C(=O)N[C@@H]1C(=O)N2C(C(=O)OCc3ccc([N+](=O)[O-])cc3)=C(Cl)CS[C@H]12)c1ccccc1", "note": "[cefaclor PNB ester]", "hydrolysis by PNB esterase": "hydrolyzed"}
